Converted amounts (≈) assume the structure as drawn.
Columns and labels:
[1] = test system: Klebsiella pneumoniae; experiment: Antibacterial activity against Klebsiella pneumoniae MTCC 432 assessed as zone of inhibition at 100 ug/ml after 14 hrs by cup plate method; assay type: functional; conditions: MTCC 432, 14 h, read-out: IZ
[2] = test system: Aspergillus flavus; experiment: Antifungal activity against Aspergillus flavus MTCC 277 assessed as zone of inhibition at 100 ug/ml after 30 hrs by cup plate method; assay type: functional; conditions: MTCC 277, 30 h, read-out: IZ
[3] = test system: Aspergillus fumigatus; experiment: Antifungal activity against Aspergillus fumigatus MTCC 343 assessed as zone of inhibition at 100 ug/ml after 30 hrs by cup plate method; assay type: functional; conditions: MTCC 343, 30 h, read-out: IZ
[4] = test system: Aspergillus niger; experiment: Antifungal activity against Aspergillus niger MTCC 282 assessed as zone of inhibition at 100 ug/ml after 30 hrs by cup plate method; assay type: functional; conditions: MTCC 282, 30 h, read-out: IZ
[5] = test system: Aspergillus fumigatus; experiment: Antifungal activity against Aspergillus fumigatus MTCC 343 after 30 hrs by serial dilution method; assay type: functional; conditions: MTCC 343, 30 h
[6] = test system: Klebsiella pneumoniae; experiment: Antibacterial activity against Klebsiella pneumoniae MTCC 432 after 14 hrs by serial dilution method; assay type: functional; conditions: MTCC 432, 14 h
[7] = test system: Candida albicans; experiment: Antifungal activity against Candida albicans MTCC 227 assessed as zone of inhibition at 100 ug/ml after 30 hrs by cup plate method; assay type: functional; conditions: MTCC 227, 30 h, read-out: IZ
[8] = test system: Staphylococcus aureus; experiment: Antibacterial activity against Staphylococcus aureus MTCC 096 after 14 hrs by serial dilution method; assay type: functional; conditions: MTCC 096, 14 h
[9] = test system: Staphylococcus aureus; experiment: Antibacterial activity against Staphylococcus aureus MTCC 096 assessed as zone of inhibition at 100 ug/ml after 14 hrs by cup plate method; assay type: functional; conditions: MTCC 096, 14 h, read-out: IZ
[10] = test system: Escherichia coli; experiment: Antibacterial activity against Escherichia coli MTCC 443 after 14 hrs by serial dilution method; assay type: functional; conditions: MTCC 443, 14 h
[11] = test system: Candida albicans; experiment: Antifungal activity against Candida albicans MTCC 227 after 30 hrs by serial dilution method; assay type: functional; conditions: MTCC 227, 30 h
[12] = test system: Escherichia coli; experiment: Antibacterial activity against Escherichia coli MTCC 443 assessed as zone of inhibition at 100 ug/ml after 14 hrs by cup plate method; assay type: functional; conditions: MTCC 443, 14 h, read-out: IZ
[13] = test system: Aspergillus niger; experiment: Antifungal activity against Aspergillus niger MTCC 282 after 30 hrs by serial dilution method; assay type: functional; conditions: MTCC 282, 30 h
[14] = test system: Bacillus subtilis; experiment: Antibacterial activity against Bacillus subtilis MTCC 441 after 14 hrs by serial dilution method; assay type: functional; conditions: MTCC 441, 14 h
[15] = test system: Bacillus subtilis; experiment: Antibacterial activity against Bacillus subtilis MTCC 441 assessed as zone of inhibition at 100 ug/ml after 14 hrs by cup plate method; assay type: functional; conditions: MTCC 441, 14 h, read-out: IZ
[16] = test system: Salmonella typhi; experiment: Antibacterial activity against Salmonella typhi MTCC 733 after 14 hrs by serial dilution method; assay type: functional, Salmonella enterica subsp. enterica serovar Typhi; conditions: Salmonella enterica, MTCC 733, 14 h
[17] = test system: Aspergillus flavus; experiment: Antifungal activity against Aspergillus flavus MTCC 277 after 30 hrs by serial dilution method; assay type: functional; conditions: MTCC 277, 30 h
[18] = test system: Salmonella typhi; experiment: Antibacterial activity against Salmonella typhi MTCC 733 assessed as zone of inhibition at 100 ug/ml after 14 hrs by cup plate method; assay type: functional, Salmonella enterica subsp. enterica serovar Typhi; conditions: Salmonella enterica, MTCC 733, 14 h; read-out: IZ

SMILES	zone of inhibition at 100 µg/mL [1]	zone of inhibition at 100 µg/mL [2]	zone of inhibition at 100 µg/mL [3]	zone of inhibition at 100 µg/mL [4]	MIC [5]	MIC [6]	zone of inhibition at 100 µg/mL [7]	MIC [8]	zone of inhibition at 100 µg/mL [9]	MIC [10]	MIC [11]	zone of inhibition at 100 µg/mL [12]	MIC [13]	MIC [14]	zone of inhibition at 100 µg/mL [15]	MIC [16]	MIC [17]	zone of inhibition at 100 µg/mL [18]
O=C1c2ccccc2C(=O)N1CCCCOc1cc(C(F)(F)F)nc2ccc(F)cc12	12 mm	12 mm	12 mm	17 mm	12.5 µg/mL (≈ 28.9 µM)	12.5 µg/mL (≈ 28.9 µM)	15 mm	6.25 µg/mL (≈ 14.5 µM)	15 mm	25 µg/mL (≈ 57.8 µM)	6.25 µg/mL (≈ 14.5 µM)	< 10 mm	6.25 µg/mL (≈ 14.5 µM)	6.25 µg/mL (≈ 14.5 µM)	15 mm	12.5 µg/mL (≈ 28.9 µM)	12.5 µg/mL (≈ 28.9 µM)	12 mm
Cc1ccc2nc(C(F)(F)F)cc(OCCCCN3C(=O)c4ccccc4C3=O)c2c1	15 mm	< 10 mm	12 mm	17 mm	12.5 µg/mL (≈ 29.2 µM)	6.25 µg/mL (≈ 14.6 µM)	15 mm	6.25 µg/mL (≈ 14.6 µM)	15 mm	50 µg/mL (≈ 117 µM)	6.25 µg/mL (≈ 14.6 µM)	< 10 mm	6.25 µg/mL (≈ 14.6 µM)	6.25 µg/mL (≈ 14.6 µM)	15 mm	12.5 µg/mL (≈ 29.2 µM)	50 µg/mL (≈ 117 µM)	12 mm
O=c1cc(C(F)(F)F)n(CCCCN2CCCCC2)c2ccc(F)cc12	12 mm	12 mm	< 10 mm	12 mm	25 µg/mL (≈ 67.5 µM)	12.5 µg/mL (≈ 33.7 µM)	15 mm	12.5 µg/mL (≈ 33.7 µM)	12 mm	50 µg/mL (≈ 135 µM)	6.25 µg/mL (≈ 16.9 µM)	< 10 mm	12.5 µg/mL (≈ 33.7 µM)	25 µg/mL (≈ 67.5 µM)	< 10 mm	50 µg/mL (≈ 135 µM)	12.5 µg/mL (≈ 33.7 µM)	< 10 mm
O=c1cc(C(F)(F)F)n(CCCCN2CCOCC2)c2ccc(F)cc12	< 10 mm	< 10 mm	< 10 mm	13 mm	25 µg/mL (≈ 67.1 µM)	25 µg/mL (≈ 67.1 µM)	15 mm	6.25 µg/mL (≈ 16.8 µM)	15 mm	50 µg/mL (≈ 134 µM)	6.25 µg/mL (≈ 16.8 µM)	< 10 mm	12.5 µg/mL (≈ 33.6 µM)	12.5 µg/mL (≈ 33.6 µM)	13 mm	25 µg/mL (≈ 67.1 µM)	25 µg/mL (≈ 67.1 µM)	< 10 mm
CN1CCN(CCCCn2c(C(F)(F)F)cc(=O)c3cc(F)ccc32)CC1	< 10 mm	< 10 mm	12 mm	14 mm	12.5 µg/mL (≈ 32.4 µM)	25 µg/mL (≈ 64.9 µM)	12 mm	6.25 µg/mL (≈ 16.2 µM)	15 mm	50 µg/mL (≈ 130 µM)	12.5 µg/mL (≈ 32.4 µM)	< 10 mm	6.25 µg/mL (≈ 16.2 µM)	6.25 µg/mL (≈ 16.2 µM)	15 mm	50 µg/mL (≈ 130 µM)	25 µg/mL (≈ 64.9 µM)	< 10 mm
O=C(O)c1cn(C2CC2)c2cc(N3CCNCC3)c(F)cc2c1=O [CIPROFLOXACIN]	18 mm					6.25 µg/mL (≈ 18.9 µM)			17 mm			18 mm		6.25 µg/mL (≈ 18.9 µM)	18 mm			14 mm
Clc1ccc(COC(Cn2ccnc2)c2ccc(Cl)cc2Cl)c(Cl)c1 (stereo not given) [MICONAZOLE]		17 mm	14 mm	17 mm	12.5 µg/mL (≈ 30 µM)		17 mm				6.25 µg/mL (≈ 15 µM)		6.25 µg/mL (≈ 15 µM)				6.25 µg/mL (≈ 15 µM)	

Reference: ChEMBL document CHEMBL2380193, “New trifluoromethyl quinolone derivatives: synthesis and investigation of antimicrobial properties” (2013)
